# Reference: the supplement of paper PMC10331698
# ± gives the standard deviation of the averaged measurements.
# Legend:
# Experiment in all cases: level (log10 ratio to DMSO vehicle control); higher = higher biomarker level / cell amount than vehicle control
# Details in all cases: in DMSO
# [1] = compound: C=CC(F)(F)C(F)(F)C(F)(F)C(F)(F)C(F)(F)C(F)(F)C(F)(F)C(F)(F)C=C [1,8-Divinylperfluorooctane]
# Procedure: (§1)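 BioMAP Diversity Plus panel of 12 human primary cell co-culture systems (3C, 4H, LPS, SAg, BT, BF4T, BE3C, CASM3C, HDF3CGF, KF3CT, MyoF, Mphg). Compounds were added 1 h before stimulation and left for 24 h (MyoF 48 h; BT 72 h for soluble read-outs or 6 d for IgG). Biomarkers were read by ELISA, cytotoxicity by SRB, PBMC viability and proliferation by Alamar Blue. Each well value was divided by the mean of 8 DMSO control wells on the same plate and log10 transformed; duplicate blinded samples were tested at 4 concentrations.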
# [2] = compound: CCN(CCO)S(=O)(=O)C(F)(F)C(F)(F)C(F)(F)C(F)(F)C(F)(F)C(F)(F)C(F)(F)C(F)(F)F [N-Ethyl-N-(2-hydroxyethyl)perfluorooctanesulfonamide]
# Procedure: as §1
# [3] = compound: FC(F)C(F)(F)COCC1CO1 [((2,2,3,3-Tetrafluoropropoxy)methyl)oxirane]
# Procedure: as §1
# Perfluorobutanoic acid = compound: O=C(O)C(F)(F)C(F)(F)C(F)(F)F [Perfluorobutanoic acid]
# Procedure: as §1
# [4] = compound: O=C(O)C(F)(F)C(F)(F)C(F)F [4H-Perfluorobutanoic acid]
# Procedure: as §1
# [5] = compound: O=C(O)C(F)(F)OC(F)(F)C(F)(F)OC(F)(F)C(=O)O [Perfluoro-3,6-dioxaoctane-1,8-dioic acid]
# Procedure: as §1
# [6] = compound: O=S(=O)(O)C(F)(F)C(F)(F)C(F)(F)C(F)(F)C(F)(F)C(F)(F)F [Perfluorohexanesulfonic acid]
# Procedure: as §1
Test System,level (log10) ([1]; 6700 nM),level (log10) ([1]; 20000 nM),level (log10) ([2]; 6700 nM),level (log10) ([2]; 20000 nM),level (log10) ([3]; 6700 nM),level (log10) ([3]; 20000 nM),level (log10) ([3]; 60000 nM),level (log10) (Perfluorobutanoic acid; 6700 nM),level (log10) (Perfluorobutanoic acid; 20000 nM),level (log10) (Perfluorobutanoic acid; 60000 nM),level (log10) ([4]; 6700 nM),level (log10) ([4]; 20000 nM),level (log10) ([4]; 60000 nM),level (log10) ([5]; 6700 nM),level (log10) ([5]; 20000 nM),level (log10) ([5]; 60000 nM),level (log10) ([6]; 6700 nM),level (log10) ([6]; 20000 nM),level (log10) ([6]; 60000 nM)
KF3CT:CXCL10/IP-10,-0.001 ± 0.018,-0.0135 ± 0.005,-0.0395 ± 0.022,-0.107 ± 0.015,-0.002 ± 0.0028,-0.0005 ± 0.0035,-0.0015 ± 0.022,0.008 ± 0.0042,-0.005 ± 0.0014,-0.002 ± 0.0028,-0.007 ± 0.016,-0.0035 ± 0.016,0.01 ± 0.0042,0.0045 ± 0.011,0.0095 ± 0.022,0.029 ± 0.0085,-0.006,-0.016 ± 0.0028,-0.022 ± 0.016
HDF3CGF:CXCL10/IP-10,0.0205 ± 0.035,0.017 ± 0.035,-0.0725 ± 0.05,-0.206 ± 0.0057,-0.0085 ± 0.032,-0.033 ± 0.0057,-0.0175 ± 0.023,-0.002 ± 0.0057,0.0035 ± 0.005,-0.0025 ± 0.013,-0.0145 ± 0.016,0.0025 ± 0.0021,0.0085 ± 0.012,0.0105 ± 0.023,-0.004 ± 0.011,-0.0085 ± 0.023,0.0035 ± 0.0064,0.0015 ± 0.021,-0.0135 ± 0.012
HDF3CGF:PAI-I,0 ± 0.013,-0.0065 ± 0.012,-0.0695 ± 0.061,-0.211 ± 0.08,0.0065 ± 0.016,0.0065 ± 0.0064,0.0035 ± 0.011,-0.0025 ± 0.029,0.007 ± 0.054,0.018 ± 0.052,-0.021 ± 0.12,0.0115 ± 0.1,0.03 ± 0.069,0.0055 ± 0.015,0.0135 ± 0.029,0.0295 ± 0.012,-0.0185 ± 0.019,-0.0145 ± 0.023,-0.004 ± 0.0057
HDF3CGF:Collagen III,0.001 ± 0.024,-0.0125 ± 0.029,-0.0465 ± 0.05,-0.142 ± 0.044,-0.002 ± 0.037,-0.0115 ± 0.00071,-0.0035 ± 0.011,-0.014 ± 0.011,-0.004 ± 0.016,0.0135 ± 0.029,-0.005 ± 0.088,0.03 ± 0.054,0.072 ± 0.042,-0.0115 ± 0.013,0.002 ± 0.011,0.0535 ± 0.012,-0.0005 ± 0.022,0.0005 ± 0.015,0.0105 ± 0.043
MyoF:Collagen IV,-0.023 ± 0.0085,0.0115 ± 0.044,-0.0665 ± 0.013,0.078 ± 0.035,-0.0035 ± 0.013,-0.0065 ± 0.016,0.0065 ± 0.025,-0.032 ± 0.051,-0.0215 ± 0.04,-0.0055 ± 0.018,0.0025 ± 0.0035,0.0005 ± 0.0035,0.023 ± 0.027,-0.0165 ± 0.013,-0.011 ± 0.031,0.0295 ± 0.00071,-0.023 ± 0.018,-0.0065 ± 0.032,0 ± 0.031
lMphg:M-CSF,-0.0315 ± 0.005,0.0015 ± 0.039,-0.001 ± 0.0057,0.0105 ± 0.0035,-0.0155 ± 0.013,0 ± 0.024,-0.0265 ± 0.015,-0.023 ± 0.024,-0.0005 ± 0.011,0.024 ± 0.031,-0.0115 ± 0.005,-0.015 ± 0.0028,-0.0175 ± 0.0064,-0.009,-0.0185 ± 0.015,0.01 ± 0.042,-0.0105 ± 0.033,0.0005 ± 0.011,0.0135 ± 0.022
lMphg:SRB,0.0125 ± 0.00071,0.019 ± 0.0028,-0.0215 ± 0.0078,-0.0435 ± 0.022,-0.008 ± 0.0042,0 ± 0.0028,-0.0125 ± 0.0021,-0.012 ± 0.017,-0.0235 ± 0.037,0.002 ± 0.031,-0.0035 ± 0.019,-0.005 ± 0.0057,0.0025 ± 0.0021,-0.0035 ± 0.013,-0.009 ± 0.014,-0.0035 ± 0.015,-0.016 ± 0.037,-0.0045 ± 0.0078,-0.0265 ± 0.029
CASM3C:PAI-I,-0.0015 ± 0.00071,0.004 ± 0.0028,0 ± 0.0071,0.004 ± 0.0085,-0.0035 ± 0.0021,-0.001 ± 0.011,0.0065 ± 0.011,-0.002 ± 0.0099,-0.003 ± 0.018,-0.0005 ± 0.011,0.009 ± 0.0071,0.006 ± 0.0071,0.0075 ± 0.0021,0.0025 ± 0.00071,0.0005 ± 0.0078,0.0155 ± 0.0064,0.001 ± 0.013,0.002 ± 0.0028,0.006
CASM3C:SRB,0.002 ± 0.0042,-0.003 ± 0.0014,-0.0265 ± 0.0078,-0.097 ± 0.014,-0.0005 ± 0.015,-0.003 ± 0.0042,0.0015 ± 0.00071,0.0005 ± 0.0064,-0.0055 ± 0.011,0.002 ± 0.0042,-0.0015 ± 0.0078,-0.002 ± 0.0071,0 ± 0.0099,0.0035 ± 0.0021,-0.006 ± 0.0028,0.0085 ± 0.005,-0.0045 ± 0.0021,-0.0015 ± 0.012,-0.0025 ± 0.016
HDF3CGF:M-CSF,-0.0335 ± 0.042,-0.0085 ± 0.053,-0.101 ± 0.013,-0.27 ± 0.0071,0.009,-0.001 ± 0.033,-0.001 ± 0.013,0.0025 ± 0.012,0.0055 ± 0.005,0.0035 ± 0.00071,-0.0305 ± 0.035,-0.013 ± 0.033,-0.015 ± 0.041,-0.007 ± 0.014,-0.003 ± 0.0028,-0.0045 ± 0.00071,0.001 ± 0.0085,-0.012 ± 0.0028,0.0015 ± 0.00071
KF3CT:CD54/ICAM-1,-0.0145 ± 0.00071,-0.002,0.0415 ± 0.0078,0.002 ± 0.0028,-0.0065 ± 0.015,-0.012 ± 0.0085,-0.014 ± 0.016,-0.005 ± 0.0028,0.008 ± 0.0071,0.016 ± 0.016,0.005 ± 0.0028,-0.0115 ± 0.0035,-0.006 ± 0.011,0 ± 0.0057,0.01,0.0065 ± 0.015,-0.0165 ± 0.005,-0.0165 ± 0.0078,-0.013 ± 0.014
KF3CT:CXCL9/MIG,-0.002 ± 0.0042,-0.0015 ± 0.011,0.004 ± 0.0085,-0.032 ± 0.013,0.007 ± 0.0085,-0.002 ± 0.0099,0.0055 ± 0.0078,0 ± 0.0099,0.0015 ± 0.0021,0.0055 ± 0.022,-0.004 ± 0.016,-0.011 ± 0.011,-0.007 ± 0.0071,-0.0035 ± 0.0092,0.0065 ± 0.0078,0.017 ± 0.0099,0.001 ± 0.021,0.002 ± 0.0071,0.013 ± 0.013
BE3C:Keratin 8/18,0.0015 ± 0.005,-0.0165 ± 0.005,0 ± 0.014,-0.007 ± 0.014,-0.004 ± 0.0071,-0.019 ± 0.031,-0.0045 ± 0.0021,-0.005 ± 0.017,0.003 ± 0.0071,-0.0195 ± 0.016,-0.017 ± 0.014,-0.021 ± 0.011,0.0075 ± 0.00071,-0.0105 ± 0.0092,-0.004 ± 0.0014,0.0005 ± 0.022,0.0085 ± 0.0035,0.0005 ± 0.0064,-0.018 ± 0.0085
MyoF:TIMP-1,-0.0315 ± 0.054,0.01 ± 0.076,-0.112 ± 0.011,-0.0885 ± 0.0092,0.0165 ± 0.018,-0.0295 ± 0.0092,-0.001 ± 0.023,-0.039 ± 0.055,-0.02 ± 0.02,0.0035 ± 0.0092,0.0045 ± 0.039,0.023 ± 0.016,0.0465 ± 0.076,0.0065 ± 0.056,0.02 ± 0.037,0.026 ± 0.0014,0.0215 ± 0.064,0.0835 ± 0.053,0.099 ± 0.042
CASM3C:HLA-DR,-0.0125 ± 0.011,-0.0155 ± 0.0092,-0.002 ± 0.024,-0.111 ± 0.013,0.001 ± 0.0085,-0.001 ± 0.0099,0.0225 ± 0.043,0.012 ± 0.011,0.0065 ± 0.015,-0.0085 ± 0.018,-0.007 ± 0.0028,0.0435 ± 0.033,0.006 ± 0.024,-0.022 ± 0.018,-0.0385 ± 0.019,0.0135 ± 0.063,0.0105 ± 0.015,-0.001 ± 0.013,-0.008 ± 0.028
